From patent US10273237B2, “Imidazopyridazine compounds useful as modulators of IL-12, IL-23 and/or IFN-α responses” (BRISTOL-MYERS SQUIBB COMPANY, priority 2013, dated 2019)
pIC50: −log10 of the molar value. Where two headings read alike, the source gives them in different places.

Assays:
[1] = system: IL-23-stimulated Kit225 T cells with STAT-dependent luciferase reporter; assay: Kit225 T cell assay, STAT-dependent luciferase reporter, IL-23 stimulated; type: cell-based, human; settings: read-out: IL-23 Kit225 Reporter, LE (IC50)
Description: (§1) Kit225 T cells with a stably-integrated STAT-dependent luciferase reporter were plated in RPMI (GIBCO) containing 10% heat-inactivated FBS (GIBCO) and 100 U/mL PenStrep (GIBCO). The cells were then stimulated with either 20 ng/mL human recombinant IL-23 or 200 U/mL human recombinant IFNα (PBL InterferonSource) for 5-6 hours. Luciferase expression was measured using the STEADY-GLO® Luciferase Assay System (PROMEGA®) according to the manufacturer's instructions.

[2] = system: IFNα-stimulated Kit225 T cells with STAT-dependent luciferase reporter; assay: Kit225 T cell assay, STAT-dependent luciferase reporter, IFNα stimulated; type: cell-based, human; settings: 5-6 hours, read-out: IFNa Kit225 Reporter, LE (IC50)
Description: as §1

[3] = 20 ng/mL human recombinant IL-23, 5-6 hours
[4] = 200 U/mL human recombinant IFNα
[5] = Homo sapiens, KIT225, 20 ng/mL human recombinant IL-23, 5-6 hours
[6] = Homo sapiens, KIT225, 200 U/mL human recombinant IFNα

| Structure (SMILES) | pIC50 [1, 3] | pIC50 [2, 4] | pIC50 [1, 5] | pIC50 [2, 6] |
| --- | --- | --- | --- | --- |
| CNc1cc(Nc2cc(F)cn(C)c2=O)nn2c(C(=O)NC3(C#N)CC3)cnc12 [Example 11] | 6.51 | 6.59 | – | – |
| CNc1cc(Nc2cccn(-c3ccccn3)c2=O)nn2c(C(=O)N[C@@H]3CCOC3)cnc12 [Example 62] | 6.19 | 6.57 | – | – |
| CCC(C)NC(=O)c1cnc2c(NC)cc(Nc3cccn(C)c3=O)nn12 (single isomer, unassigned) [Example 72] | 6.34 | 6.36 | – | – |
| CNc1cc(Nc2cc(Cl)cn(C)c2=O)nn2c(C(=O)NC3(C#N)CC3)cnc12 [Example 23] | 7.15 | 7.70 | – | – |
| CCC(C)NC(=O)c1cnc2c(NC)cc(Nc3cccn(C)c3=O)nn12 (single isomer, unassigned) [Example 73] | 6.72 | 6.92 | – | – |
| CNc1cc(Nc2cccn(-c3cnc(C(C)(C)O)cn3)c2=O)nn2c(C(=O)N[C@@H]3C[C@@H]3F)cnc12 [Example 255, N-((1R,2S)-2-Fluorocyclopropyl)-6-((1-(5-(2-hydroxypropan-2-yl)pyrazin-2-yl)-2-oxo-1,2-dihydropyridin-3-yl)amino)-8-(methylamino)imidazo[1,2-b]pyridazine-3-carboxamide] | – | – | 7.51 | 7.55 |
| CNc1cc(Nc2cccn(C)c2=O)nn2c(C(=O)Nc3ccccc3)cnc12 [Example 212] | 6.96 | 5.61 | – | – |
| CNc1cc(Nc2cccn(-c3ccc(C(=O)N(C)C)cn3)c2=O)nn2c(C(=O)N[C@@H]3C[C@@H]3F)cnc12 [Example 257, 6-((5′-(Dimethylcarbamoyl)-2-oxo-2H-[1,2′-bipyridin]-3-yl)amino)-N-((1R,2S)-2-fluorocyclopropyl)-8-(methylamino)imidazo[1,2-b]pyridazine-3-carboxamide] | – | – | 6.74 | 7.15 |
| CNc1cc(Nc2cccn(-c3ccc(C(=O)N(C)C)cc3)c2=O)nn2c(C(=O)NCC(C)(C)CO)cnc12 [compound 267] | – | – | 6.44 | 6.54 |
| CNc1cc(Nc2cc(F)cn(-c3ccccn3)c2=O)nn2c(C(=O)N[C@@H]3C[C@@H]3F)cnc12 [Example 151] | 7.52 | 7.70 | – | – |
| CCC(C)NC(=O)c1cnc2c(NC)cc(Nc3cccn(-c4cccnn4)c3=O)nn12 (stereo not drawn) [Example 105] | 6.49 | 7.05 | – | – |
| CNc1cc(Nc2cccn(-c3ccccc3)c2=O)nn2c(C(=O)NC3(C#N)CC3)cnc12 [Example 120] | 6.70 | 7.15 | – | – |
| CNc1cc(Nc2cccn(-c3ccccc3)c2=O)nn2c(C(=O)N[C@@H]3C[C@@H]3F)cnc12 [Example 191] | 7.40 | 7.70 | – | – |
| CNc1cc(Nc2cccn(-c3ccc(F)cc3)c2=O)nn2c(C(=O)NC3(C#N)CC3)cnc12 [Example 12] | 6.77 | 7.00 | – | – |
| CNc1cc(Nc2cc(F)cn(CCF)c2=O)nn2c(C(=O)NC3CC3)cnc12 [Example 21] | 6.21 | 6.96 | – | – |
| O=C(NC1CC1)c1cnc2c3c(c(Nc4cccn(-c5ccccn5)c4=O)nn12)OCCN3 [Example 240] | – | – | 7.22 | 6.68 |

| Structure (SMILES) | pIC50 [1, 3] | pIC50 [2, 4] | pIC50 [1, 5] | pIC50 [2, 6] |
| --- | --- | --- | --- | --- |
| CNc1cc(Nc2cccn(-c3ccc(C(=O)N4CCC4)cn3)c2=O)nn2c(C(=O)N[C@@H]3C[C@@H]3F)cnc12 [compound 264] | – | – | 7.05 | 7.40 |
| CNc1cc(Nc2cccn(C)c2=O)nn2c(C(=O)NC(C)(C)C#N)cnc12 [Example 130] | 6.19 | 6.51 | – | – |
| CNc1cc(Nc2cccn(C3CCOC3)c2=O)nn2c(C(=O)NC3CCCC3)cnc12 (stereo not drawn) [Example 222] | 6.54 | 6.89 | – | – |
| CNc1cc(Nc2cccn(C)c2=O)nn2c(C(=O)N[C@@H]3C[C@@H]3F)cnc12 [Example 116] | 7.10 | 7.30 | – | – |
| CNc1cc(Nc2cccn(-c3ccc(C(C)(C)O)cc3)c2=O)nn2c(C(=O)NC3CC3)cnc12 [Example 26] | 6.57 | 6.96 | – | – |
| CNc1cc(Nc2cccn(C(C)(C)C)c2=O)nn2c(C(=O)NC3(C#N)CC3)cnc12 [Example 219] | 6.60 | 7.15 | – | – |
| CNc1cc(Nc2cc(F)cn(CC3CC3)c2=O)nn2c(C(=O)NC3(C#N)CC3)cnc12 [Example 16] | 6.40 | 6.44 | – | – |
| CCNc1cc(Nc2cccn(C)c2=O)nn2c(C(=O)NC3CCC3)cnc12 [Example 232] | 6.32 | 6.57 | – | – |
| CNc1cc(Nc2cc(F)cn(C)c2=O)nn2c(C(=O)NCC3(CO)CC3)cnc12 [Example 30] | 6.41 | 6.70 | – | – |
| CNc1cc(Nc2cccn(C3CCCCC3)c2=O)nn2c(C(=O)NC3CC3)cnc12 [Example 226] | 6.62 | 7.05 | – | – |
| CNc1cc(Nc2cccn(-c3cccc(C)n3)c2=O)nn2c(C(=O)N[C@@H]3C[C@@H]3F)cnc12 [Example 49] | 7.70 | 7.30 | – | – |
| CNc1cc(Nc2cccn(C)c2=O)nn2c(C(=O)NC3CCCCC3C)cnc12 (stereo not drawn) [Example 215] | 6.72 | 6.52 | – | – |
| CNc1cc(Nc2cccn(-c3ccn(C)n3)c2=O)nn2c(C(=O)N[C@@H]3C[C@@H]3F)cnc12 [Example 169] | 7.10 | 7.40 | – | – |
| CNc1cc(Nc2cccn(-c3ccc(C(C)(C)O)cc3)c2=O)nn2c(C(=O)NC3(C#N)CC3)cnc12 [Example 27] | 6.18 | 6.35 | – | – |
| CNc1cc(Nc2cccn(C3CCC(N4CCOCC4)CC3)c2=O)nn2c(C(=O)NC3CC3)cnc12 (stereo not drawn) [Example 224] | 6.17 | 6.33 | – | – |

Now from value to molecule:

| pIC50 [1, 3] | pIC50 [2, 4] | pIC50 [1, 5] | pIC50 [2, 6] | Structure (SMILES) |
| --- | --- | --- | --- | --- |
| 7.40 | 7.52 | – | – | CNc1cc(Nc2cccn(-c3cc(C)n(C)n3)c2=O)nn2c(C(=O)NC3CC3)cnc12 [Example 154] |
| 5.41 | 5.37 | – | – | CNc1cc(Nc2nccn(C)c2=O)nn2c(C(=O)NC3CCC3)cnc12 [Example 84] |
| – | – | 8.00 | 7.70 | CNc1cc(Nc2cccn(-c3ccc(OC)nn3)c2=O)nn2c(C(=O)N[C@@H]3C[C@@H]3F)cnc12 [compound 261] |
| 6.44 | 6.92 | – | – | CNc1cc(Nc2cccn(-c3ccccc3F)c2=O)nn2c(C(=O)NC3CC3)cnc12 [Example 152] |
| 6.66 | 6.85 | – | – | CNc1cc(Nc2cccn(-c3ccnc(F)c3)c2=O)nn2c(C(=O)NC3CC3)cnc12 [Example 134] |
| 6.82 | 6.92 | – | – | CNc1cc(Nc2cccn(-c3ccc(F)cc3)c2=O)nn2c(C(=O)NC3CC3)cnc12 [Example 10] |
| 6.96 | 6.59 | – | – | CNc1cc(Nc2cccn(-c3ccc(C)nn3)c2=O)nn2c(C(=O)NCC(C)C)cnc12 [Example 200] |
| 7.15 | 7.05 | – | – | CNc1cc(Nc2cccn(-c3ccc(C(C)O)cc3)c2=O)nn2c(C(=O)NC3CCC3)cnc12 (stereo not drawn) [Example 142] |
| 6.64 | 6.74 | – | – | CNc1cc(Nc2cncn(-c3ccc(C)nn3)c2=O)nn2c(C(=O)NC3CCC3)cnc12 [Example 78] |
| 7.15 | 7.00 | – | – | CNc1cc(Nc2cccn(-c3ccc(OC)nc3)c2=O)nn2c(C(=O)NC3CC3)cnc12 [Example 204] |
| 7.22 | 7.40 | – | – | CNc1cc(Nc2cccn(-c3ccc(C)nn3)c2=O)nn2c(C(=O)N[C@@H]3C[C@@H]3F)cnc12 [Example 65] |
| 6.15 | 6.47 | – | – | CNc1cc(Nc2cccn(C3(C)CC3)c2=O)nn2c(C(=O)NC3CC3)cnc12 [Example 161] |
| 6.51 | 6.96 | – | – | CNc1cc(Nc2cccn(-c3ncc(C(F)(F)F)cn3)c2=O)nn2c(C(=O)NC3CC3)cnc12 [Example 175] |
| 6.96 | 7.40 | – | – | CNc1cc(Nc2cccn(-c3cccc(C)n3)c2=O)nn2c(C(=O)NC3CCC3)cnc12 [Example 47] |
| 7.10 | 6.92 | – | – | CNc1cc(Nc2cccn(-c3ccccc3)c2=O)nn2c(C(=O)NC3CC3)cnc12 [Example 119] |
| 6.68 | 7.00 | – | – | CNc1cc(Nc2cccn(C3CCC3)c2=O)nn2c(C(=O)NC3CC3)cnc12 [Example 228] |
| 6.54 | 6.46 | – | – | CCc1ccc(-n2cccc(Nc3cc(NC)c4ncc(C(=O)N[C@@H]5C[C@@H]5F)n4n3)c2=O)nn1 [Example 181] |
